From PMC4144957, “Molecular Interaction Mechanism between 2-Mercaptobenzimidazole and Copper-Zinc Superoxide Dismutase” (PLoS ONE, 2014)

Biological target: T1, Cu/ZnSOD from porcine erythrocytes (Sus scrofa, UniProt P04178)
T1 construct: gene SOD1; native, purchased (Biodee Biotechnology), from porcine erythrocytes; homodimer; human structure 1HL4 used only for docking
Experiment: NBT photoreduction assay
Assay type: biochemical
Details: read-out: relative activity (%) at 100 nM MBI

T1 sequence (P04178 2-153): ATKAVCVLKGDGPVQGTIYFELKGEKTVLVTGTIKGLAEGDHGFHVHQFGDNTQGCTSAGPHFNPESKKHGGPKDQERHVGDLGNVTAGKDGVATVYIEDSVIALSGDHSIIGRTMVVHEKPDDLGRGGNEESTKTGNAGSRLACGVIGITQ

S=c1[nH]c2ccccc2[nH]1 [MBI]
activity at 0.1 µM: 89.3 ± 1.2%
